Measurements: patent US20030119067A1, “PYK2 related products and methods” (Sugen, Inc., priority 1996, published 2003)

System: PYK-2
Experiment: Tyrosine phosphorylation of PYK-2 in NIH3T3 cells overexpressing PYK-2
Type: cell-based
Conditions: NIH3T3 cells overexpressing PYK-2 / PYK-2-HA; TPA 6 μM, 15 min, 37° C.
Description: The PYK-2 cDNA cloned in pLSV was cotransfected with pSV2neo into PC12 cells and NIH3T3 in order to establish stable cell lines. G418 resistant colonies were screened by immunoprecipitating and immunoblotting.
NIH3T3 cell lines were established that overexpress the PYK-2 and the PYK-2-HA protein. […] The level of phosphorylation is not so high.

SMILES: CCCCCCCCCCCCCC(=O)O[C@@H]1[C@@H](C)[C@@]2(O)[C@@H](C=C(CO)C[C@]3(O)C(=O)C(C)=C[C@@H]23)[C@@H]2C(C)(C)[C@]12OC(C)=O [PMA, phorbol 12-myristate 13-acetate]
- tyrosine phosphorylation of PYK-2: stronger effect
